Measurements taken from paper PMC4335062, “Data-Driven Prediction and Design of bZIP Coiled-Coil Interactions” (PLoS Computational Biology, 2015).
pKd: −log10 of the molar value. Read-outs that look alike come from different tables or passages of the source. Where no end group is shown, it is not given here.

Legend:
Assay in all cases: Direct-binding FRET assay
BATF = target: T1, BATF (Homo sapiens, UniProt Q16520); conditions: Kd
T1 construct: made in house
T1 sequence (Q16520 26-89 limits assumed): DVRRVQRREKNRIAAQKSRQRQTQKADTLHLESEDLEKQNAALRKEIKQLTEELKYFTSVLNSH
Outline: (§1)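 Heterodimer affinities are derived from FRET titrations fitted with a dimerization model that uses homodimer Kd values of the designed peptide and of the target bZIPs. Interactions giving under 15% donor change are labelled "NS".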

CREB3 = target: T2, CREB3 (Homo sapiens, UniProt O43889)
T2 construct: made in house
T2 sequence (O43889 150-213 limits assumed): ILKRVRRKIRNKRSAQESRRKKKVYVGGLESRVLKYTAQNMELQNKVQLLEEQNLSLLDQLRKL
Outline: as §1

NFE2L2 = target: T3, NFE2L2 (Homo sapiens, UniProt Q16236); conditions: Kd
T3 construct: made in house
T3 sequence (Q16236 497-560 limits assumed): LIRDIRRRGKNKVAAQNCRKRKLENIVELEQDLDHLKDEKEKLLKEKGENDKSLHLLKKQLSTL
Outline: as §1

BATF2 = target: T4, BATF2 (Homo sapiens, UniProt Q8N1L9); conditions: Kd
T4 construct: made in house
T4 sequence (Q8N1L9 17-80 limits assumed): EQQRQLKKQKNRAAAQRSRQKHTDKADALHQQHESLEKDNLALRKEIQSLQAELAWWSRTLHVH
Outline: as §1

ATF2 = target: T5, ATF2 (Homo sapiens, UniProt P15336); conditions: Kd, N-terminal rhodamine design, mean or single
T5 construct: made in house
T5 sequence (P15336 352-415 limits assumed): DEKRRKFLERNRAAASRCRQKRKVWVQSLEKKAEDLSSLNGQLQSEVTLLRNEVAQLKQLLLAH
Outline: as §1

NFE2L3 = target: T6, NFE2L3 (Homo sapiens, UniProt Q9Y4A8)
T6 construct: made in house
T6 sequence (Q9Y4A8 578-641 limits assumed): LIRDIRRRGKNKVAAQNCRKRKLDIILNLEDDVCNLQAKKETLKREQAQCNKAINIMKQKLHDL
Experimental: (§2) The direct binding assay was performed manually in 384-well plates and is similar to a previously described assay. Wells were filled with 20 μL of 1 mM TCEP-HCl. A 4 μM stock of acceptor protein was made fresh in 1 mM TCEP-HCl, and 20 μL was titrated in 2-fold dilutions over the wells. […] The direct-binding FRET data were fit as previously described. Briefly, the Kd of the designed peptide homodimer was experimentally determined and used with previously determined target homodimer Kd values to determine the heterodimer Kd. The homodimer Kd values used for the human bZIPs were from; experiments done by […] et al. used the same protein constructs for the human bZIP proteins, the same buffer conditions, and the same assay. The fitting used a system of ordinary differential equations to describe the concentrations of homo and heterodimers formed by the donor (D) and acceptor (A) as a function of the heterodimer Kd. MATLAB was used to simulate the binding experiment for different Kd values, and the value that gave the best agreement between simulation and experiment was assigned. A minimum 15% change in the donor fluorescence upon titrating the acceptor peptide from 0 to 1000 nM was required for a fit to be attempted. If this minimum was not met, the interaction was classified as “NS” for no signal change. […] For such curves, we removed the first five points and re-fit the data.

NFE2 = target: T7, NFE2 (Homo sapiens, UniProt Q16621)
T7 construct: made in house
T7 sequence (Q16621 266-329 limits assumed): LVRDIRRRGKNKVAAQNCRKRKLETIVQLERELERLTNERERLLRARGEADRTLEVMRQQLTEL
Experimental: as §2

MAFF = target: T8, MAFF (Homo sapiens, UniProt Q9ULX9)
T8 construct: made in house
T8 sequence (Q9ULX9 51-114 limits assumed): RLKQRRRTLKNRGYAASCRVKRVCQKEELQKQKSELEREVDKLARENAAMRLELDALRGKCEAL
Experimental: as §2

[1] = 4°C, C-terminal fluorescein design as donor, TAMRA target titrated
[2] = 4°C, C-terminal rhodamine design, mean or single
[3] = 4°C, N-terminal rhodamine design, mean or single
[4] = 23°C, C-terminal fluorescein design as donor, TAMRA target titrated
[5] = 23°C, C-terminal rhodamine design, mean or single
[6] = 23°C, N-terminal rhodamine design, mean or single
[7] = 37°C, C-terminal fluorescein design as donor, TAMRA target titrated
[8] = 37°C, C-terminal rhodamine design, mean or single
[9] = 37°C, N-terminal rhodamine design, mean or single
[10] = 4°C, C-terminal rhodamine design, repeat 1
[11] = 23°C, C-terminal rhodamine design, repeat 1

Q: “SIAATLEKEEANLEKMNKKLAAEIESLLKEKDKLESVLNYHE [JUN-d1]” was tested. Which pKd (BATF; [1]) did it give?
A: < 6.00

Q: And the pKd (BATF; [2])?
A: 6.00 to 6.70

Q: What about the pKd (BATF; [3]) of the same sequence?
A: < 6.00

Q: What about the pKd (BATF; [4]) of the same sequence?
A: < 6.00

Q: And the pKd (BATF; [5])?
A: < 6.00

Q: And the pKd (BATF; [6])?
A: < 6.00

Q: And the pKd (BATF; [7])?
A: < 6.00

Q: And the pKd (BATF; [8])?
A: < 6.00

Q: What about the pKd (BATF; [9]) of the same sequence?
A: < 6.00

Q: What about the pKd (CREB3) of the same sequence?
A: < 6.00

Q: And the pKd (CREB3; [2])?
A: < 6.00

Q: And the pKd (CREB3; [3])?
A: < 6.00

Q: What about the pKd (CREB3; [5]) of the same sequence?
A: < 6.00

Q: What about the pKd (CREB3; [6]) of the same sequence?
A: < 6.00

Q: What about the pKd (CREB3; [9]) of the same sequence?
A: < 6.00

Q: What about the pKd (NFE2L2; [1]) of the same sequence?
A: < 6.00

Q: What about the pKd (NFE2L2; [2]) of the same sequence?
A: < 6.00

Q: And the pKd (NFE2L2; [3])?
A: < 6.00

Q: And the pKd (NFE2L2; [4])?
A: < 6.00

Q: What about the pKd (NFE2L2; [5]) of the same sequence?
A: < 6.00

Q: What about the pKd (NFE2L2; [6]) of the same sequence?
A: < 6.00

Q: And the pKd (NFE2L2; [7])?
A: < 6.00

Q: And the pKd (NFE2L2; [8])?
A: < 5.30

Q: What about the pKd (NFE2L2; [9]) of the same sequence?
A: < 6.00

Q: And the pKd (BATF2; [1])?
A: < 6.00

Q: What about the pKd (BATF2; [2]) of the same sequence?
A: < 5.30

Q: What about the pKd (BATF2; [3]) of the same sequence?
A: < 6.00

Q: And the pKd (BATF2; [4])?
A: < 6.00

Q: What about the pKd (BATF2; [5]) of the same sequence?
A: < 6.00

Q: What about the pKd (BATF2; [6]) of the same sequence?
A: < 6.00

Q: And the pKd (BATF2; [7])?
A: < 6.00

Q: What about the pKd (BATF2; [8]) of the same sequence?
A: < 6.00

Q: What about the pKd (BATF2; [9]) of the same sequence?
A: < 6.00

Q: What about the pKd (ATF2; 4°C) of the same sequence?
A: 6.00 to 6.70

Q: What about the pKd (ATF2; 23°C) of the same sequence?
A: < 6.00

Q: What about the pKd (ATF2; 37°C) of the same sequence?
A: < 6.00

Q: What about the pKd (NFE2L3) of the same sequence?
A: < 6.00

Q: What about the pKd (NFE2L3; [10]) of the same sequence?
A: < 6.00

Q: And the pKd (NFE2L3; [3])?
A: < 6.00

Q: What about the pKd (NFE2L3; [11]) of the same sequence?
A: < 6.00

Q: And the pKd (NFE2L3; [6])?
A: < 6.00

Q: And the pKd (NFE2L3; [9])?
A: < 6.00

Q: And the pKd (NFE2)?
A: < 6.00

Q: What about the pKd (NFE2; [1]) of the same sequence?
A: < 6.00

Q: What about the pKd (NFE2; [10]) of the same sequence?
A: < 6.00

Q: And the pKd (NFE2; [3])?
A: < 6.00

Q: What about the pKd (NFE2; [4]) of the same sequence?
A: < 6.00

Q: What about the pKd (NFE2; [11]) of the same sequence?
A: < 6.00

Q: And the pKd (NFE2; [6])?
A: < 6.00

Q: And the pKd (NFE2; [7])?
A: < 6.00

Q: And the pKd (NFE2; [9])?
A: < 6.00

Q: What about the pKd (MAFF) of the same sequence?
A: < 6.00

Q: And the pKd (MAFF; [10])?
A: < 6.00

Q: And the pKd (MAFF; [3])?
A: < 6.00

Q: What about the pKd (MAFF; [11]) of the same sequence?
A: < 6.00

Q: What about the pKd (MAFF; [6]) of the same sequence?
A: < 6.00

Q: And the pKd (MAFF; [9])?
A: < 6.00
